Laboratory results taken from patent publication US20210015834A1, “NK-1 ANTAGONISTS FOR USE IN THE TREATMENT OF OCULAR PAIN” (priority 2018, published 2021).

Assays:
mouse cornea nociception = experiment: Measurement of cornea sensitivity, eye-wiping test (NaCl 5M); type: in vivo, mice; details: for MPE increase, overall: three experiments; for MPE (maximal possible effect): one 10 μl drop
Excerpt: 8 week-old C57BL6/N (Charles-River, Italy) and B6.Cg-Tac1^tm1Bbm/J (SP-KO mouse, Jackson) male mice were used in all experiments. Carbon dioxide inhalation and subsequent cervical dislocation were applied to euthanize the animals. All experimental protocols were approved by the Animal Care and Use Committee of the IRCCS San Raffaele Scientific Institute, in accordance with the ARVO Statement for the Use of Animals in Ophthalmic and Vision Research.
Mice 8-week-old C57BL6/N (Charles-River, Italy) and B6.Cg-Tac1^tm1Bbm/J (Jackson) corneal sensitivity was measured with the eye wiping test^36. Briefly, animals were placed individually in an empty cage for 5 min to get acclimatized; one drop (10 μl) of NaCl 5M was put into the right eye of the animal and eye wipings with the ipsilateral forepaw were counted for 30 s. Subsequently, a drop (10 μl) of Fosaprepitant (2, 10 and 50 mg/mL, powder was weighted and dissolved in PBS to reach the desired final concentration, Ivemend, Merck Sharp & Dohme B.V), PBS, Diclofenac (0.1%, Dicloftil, Farmingea) or Oxybuprocaine chloride (4 mg/ml, Novesina, Laboratoire Thea) was put on the same eye and left for 3 min. […] Three experiments were performed, each with 8 mice per group. In a sub-group of experiments, cornea sensitivity was tested 24 hours after 10 days of topical treatment (10 μl) with 2 mg/mL Fosaprepitant (6 times/day).
Anti-nociceptive effect was calculated as maximal possible effect (% MPE or MPE %) for each mouse according to the following formula:
% MPE=100×(post-treatment wipe count−pre-treatment wipe count)/(0−pre-treatment wipe count).
Unpaired t-test was used to evaluate the differences in nociception after different treatments. A p value <0.05 was considered to be statistically significant. The statistical software GraphPad Prism 5.0 (GraphPad Software, La Jolla, Calif.) was used for all analyses. All data were expressed as mean±standard error of the means (SEM). All methods were performed in accordance with the relevant guidelines and regulations.

cornea = details: topical Fosaprepitant 10 mg/ml 6 times a day; cited from earlier work
ocular surface [1] = experiment: Gross signs of ocular surface toxicity in mice; details: topical Fosaprepitant
ocular surface [2] = experiment: Gross signs of ocular surface toxicity in the human subject; type: in vivo; details: topical Fosaprepitant 10 mg/ml 6 times a day for 30 days
Excerpt: One patient affected with Stage II (Foster) ocular cicatritial pemphigoid and intractable ocular pain was recruited on a compassionate trial of Fosaprepitant, upon administration and acceptance of informed consent, after consultation with the San Raffaele Hospital Ethics Committee. The patient reported the pain to be located on the ocular surface of both eyes and rated it 9/10 on the right eye and 2/10 on the left eye. Visual acuity was light perception in both eyes and the left eye presented a descemetocele. In the right eye the cornea presented diffuse punctate keratopathy, and conjunctival scarring. All the medications in use at time of enrollment were maintained. These included topical medications: tacrolimus 0.02% 3 times a day, dexamethasone phosphate twice a day, Timolol-brinzolamide drops twice a day, lubricants 6 times a day. In addition, the patient was taking systemic prednisone (25 mg); other systemic immunosuppressants had been previously tried to control the disease but had been suspended due to inefficacy or intolerance. In an unsuccessful attempt to control ocular pain, the prednisone dosage was raised up to 25 mg per day and the patient had been started 3 months before with opioid analgesic Tapentadol 50 mg bid and paracetamol 1000 mg tid. Only the right eye was treated. […]

corneal sensitivity = experiment: Corneal sensitivity, Cochet-Bonnet aesthesiometer, in a treated patient; type: in vivo, human
Excerpt: (§1) One patient affected with Stage II (Foster) ocular cicatritial pemphigoid and intractable ocular pain was recruited on a compassionate trial of Fosaprepitant, upon administration and acceptance of informed consent, after consultation with the San Raffaele Hospital Ethics Committee. The patient reported the pain to be located on the ocular surface of both eyes and rated it 9/10 on the right eye and 2/10 on the left eye. Visual acuity was light perception in both eyes and the left eye presented a descemetocele. In the right eye the cornea presented diffuse punctate keratopathy, and conjunctival scarring. All the medications in use at time of enrollment were maintained. These included topical medications: tacrolimus 0.02% 3 times a day, dexamethasone phosphate twice a day, Timolol-brinzolamide drops twice a day, lubricants 6 times a day. In addition, the patient was taking systemic prednisone (25 mg); other systemic immunosuppressants had been previously tried to control the disease but had been suspended due to inefficacy or intolerance. In an unsuccessful attempt to control ocular pain, the prednisone dosage was raised up to 25 mg per day and the patient had been started 3 months before with opioid analgesic Tapentadol 50 mg bid and paracetamol 1000 mg tid. Only the right eye was treated. In this study, the patient received treatment with ocular Fosaprepitant 10 mg/mL (50 μl) 6 times/day for 30 days.
To test corneal sensitivity, a Cochet-Bonnet aesthesiometer (60 mm in length, 0.12 mm diameter) was used. The head of the subject was placed on the chinrest of the slit lamp, and the Cochet-Bonnet filament was neared the volunteer's eye with a perpendicular angle.
(§2) Different filament lengths were tried (starting from 60 mm, 5 mm intervals) until response, and noted. In order to quantify subjective ocular pain, the treated patient was asked to rate the pain felt in the treated eye on a scale from 0 (no pain) to 10 (worst possible pain) before and after the treatment^38.

ocular pain = experiment: Subjective ocular pain score (0-10) in a treated patient; type: in vivo, human
Excerpt: as §1, §2

[3] = Fosaprepitant 10 mg/ml 6 times a day, after one month of treatment

Compound: O=C(O)Cc1ccccc1Nc1c(Cl)cccc1Cl [Diclofenac]
- % MPE (mouse cornea nociception; Diclofenac 0.1% topical, p=0.0029 vs Fosaprepitant 10 mg/ml): 69.66%

Compound: C[C@@H](O[C@H]1OCCN(Cc2nc(O)n(P(=O)(O)O)n2)[C@H]1c1ccc(F)cc1)c1cc(C(F)(F)F)cc(C(F)(F)F)c1 [Fosaprepitant, [3-{[(2R,3S)-2-[(1R)-1-[3,5-bis(trifluoromethyl)phenyl]ethoxy]-3-(4-fluorophenyl)morpholin-4-yl]methyl}-5-oxo-2H-1,2,4-triazol-1-yl]phosphonic acid]
- signs of toxicity to the cornea (cornea): did not show obvious signs of toxicity to the cornea
- signs of ocular surface toxicity (ocular surface [1]): no gross signs of ocular surface toxicity
- signs of ocular surface toxicity (ocular surface [2]): no gross signs of ocular surface toxicity
- Cochet Bonnet aesthesiometry (corneal sensitivity; Fosaprepitant 10 mg/ml 6 times a day, 2 hours after the first instillation, baseline 60 mm): 50 mm
- Cochet Bonnet aesthesiometry, reduction (corneal sensitivity; [3]): 50%
- corneal sensitivity (corneal sensitivity; follow-up visit one month after study exit): 60 mm
- change of cornea sensitivity (mouse cornea nociception; Fosaprepitant 2 mg/ml 6 times a day for 10 days, compared to 10 days PBS instillation, p=0.0195): −31.4%
- reduction of cornea sensitivity (mouse cornea nociception; Fosaprepitant 2 mg/ml one time, topical): did not significantly reduce cornea sensitivity
- change of cornea sensitivity (mouse cornea nociception; Fosaprepitant 2 mg/ml, single shot vs 10 days treatment, p=0.0174): −27.1%
- reduction of nociception (mouse cornea nociception; Fosaprepitant 10 mg/ml single administration vs PBS, p=0.029): −28.1%
- maximum possible analgesic effect (MPE) (mouse cornea nociception; Fosaprepitant 10 mg/ml topical, p=0.0006 vs PBS): 44.52%
- corneal pain measured as eye wiping counts vs placebo (mouse cornea nociception; Fosaprepitant 50 mg/ml administered once, 30 minutes after administration): significantly reduces corneal pain
- maximum possible analgesic effect (MPE) (mouse cornea nociception; Fosaprepitant 50 mg/ml topical, p=0.0001 vs PBS): 52.62%
- MPE increase, overall (mouse cornea nociception; Fosaprepitant 50 mg/ml vs PBS, p<0.0001): 21.03 points
- MPE (maximal possible effect) (mouse cornea nociception; Fosaprepitant 50 mg/ml, first experiment, SD 14.6): 48.4%
- MPE (maximal possible effect) (mouse cornea nociception; Fosaprepitant 50 mg/ml, second experiment, SD 24.9): 43.2%
- MPE (maximal possible effect) (mouse cornea nociception; Fosaprepitant 50 mg/ml, third experiment, SD 16.6): 44.2%
- reduction of nociception (mouse cornea nociception; Fosaprepitant single administration, 10 mg/ml vs 2 mg/ml, p=0.0005): −23.1%
- lower effective concentration in reducing corneal pain (mouse cornea nociception; single administration): 10 mg/mL
- corneal sensitivity reduction, WT mice before vs after treatment (mouse cornea nociception; single administration of Fosaprepitant 10 mg/ml, p<0.0001): −47.9
- corneal pain score (ocular pain; Fosaprepitant 10 mg/ml 6 times a day, 2 hours after the first instillation, baseline 9/10): 0/10
- pain score (ocular pain; [3]): 0/10
- pain score (ocular pain; follow-up visit one month after study exit, not constant): 1/10

Compound: CCCCOc1cc(C(=O)OCCN(CC)CC)ccc1N [Oxybuprocaine]
- % MPE (mouse cornea nociception; Oxybuprocaine 4 mg/ml topical, p<0.0001 vs Fosaprepitant 10 mg/ml): 80.59%
- MPE difference, Oxybuprocaine higher than Fosaprepitant (mouse cornea nociception; Oxybuprocaine 4 mg/ml vs Fosaprepitant 50 mg/ml, p<0.0001): 35.89 MPE points
- MPE increase, overall (mouse cornea nociception; Oxybuprocaine 4 mg/ml vs PBS, p<0.0001): 56.92 points
- corneal pain measured as eye wiping counts vs placebo and Fosaprepitant (mouse cornea nociception; Oxybuprocaine 4 mg/ml, topical): significantly reduces corneal pain
- MPE (maximal possible effect) (mouse cornea nociception; oxybuprocaine chloride 4 mg/ml, first experiment, SD 9.7): 80.8%
- MPE (maximal possible effect) (mouse cornea nociception; oxybuprocaine chloride 4 mg/ml, second experiment, SD 13.9): 84.1%
- MPE (maximal possible effect) (mouse cornea nociception; oxybuprocaine chloride 4 mg/ml, third experiment, SD 10.9): 78.2%
